Patent publication US20170079989A1, “METHOD FOR TREATMENT OF OSTEOARTHRITIS AND OTHER JOINT RELATED INJURIES AND CONDITIONS” (priority 2010, published 2017)
Entries after “also recorded” stand apart in the source; their conditions may differ.

How the values were obtained:
[1] = Injectable formulation of sulfasalazine in SAIB/DMSO injected into an aqueous environment; format: physicochemical; conditions: drug/DMSO mixed 1:1 with SAIB gel (90% in ethanol)
Description: FIG. 2 is a drawing of the injectable formulation of FIG. 1 when injected into an aqueous environment. The liquid formulation of drug, DMSO and SAIB formed a liquid gel after the ethanol component in the SAIB and DMSO diffused out into the water. […] Controlled release of the drug over a long period of time can be beneficial to treat chronic inflammation in osteoarthritis. A known amount of sulfasalazine was weighed and dissolved in DMSO. This solution of sulfasalazine/DMSO was then mixed in 1:1 ratio with SAIB gel (90% by weight in ethanol). The mixture as shown in FIG. 1 can be loaded into a syringe and injected through a 20 GA needle. The mixture formed a gel that encapsulated the drug after the solvents (DMSO and ethanol) diffused out of the aqueous environment (FIG. 2).

[2] = cited from earlier work
[3] = In vitro release (elution testing) of injectable formulations in sterile PBS at 37 degrees C.; format: physicochemical; conditions: drug encapsulated in SAIB nanoparticles suspended in hyaluronic acid solution, dialysis tubing, 50 rpm, UV-Vis
Description: About 21 mg of curcumin was dissolved in 2 ml of DMSO/SAIB (9:1 ratio of DMSO to SAIB in ethanol). The concentration of SAIB in the solution was about 104 mg per ml of DMSO/SAIB/Ethanol solution. This solution of curcumin/DMSO/SAIB/Ethanol was added drop wise to PBS while stirring. The nanoparticles of curcumin/SAIB formed when the DMSO/ethanol diffused out into the PBS (FIG. 3). 0.5 ml of the nanoparticle solution was then mixed with 2.5 ml of 1% Hyaluronic acid (HA) in PBS. The final mixture was then used for testing of injectability and for elution study.
Elution testing of various injectable formulations as described in example 2 was carried out in sterile PBS and at 37 degrees C. Drugs such as rapamycin, curcumin and sulfasalazine were used in the testing of various formulations. Each formulation was pipetted into a segment of dialysis tubing (Sigma Cat. D0530) with both ends of the tubing sealed. The dialysis tubing with the formulation was then placed inside a container and 15 ml of sterile PBS was added to the container. The container was then placed in an incubator shaker at 37 degrees C., 50 rpm and samples were withdrawn at regular time intervals and replaced with fresh sterile PBS. The samples were measured photometrically (UV-Vis) at a wavelength of 420 nanometers for curcumin, 359 nanometers for sulfasalazine and 278 nanometers for rapamycin.

Compound | release of drug from the SAIB gel [1] | water solubility [2] | release kinetics of drug from the injectable formulation [3]
O=C(O)c1cc(/N=N/c2ccc(S(=O)(=O)Nc3ccccn3)cc2)ccc1O [sulfasalazine, Sulfasalazine] | slowly diffused out of the gel in a controlled release manner | slightly water soluble | high at the beginning and level off quickly in a few days
COc1cc(/C=C/C(=O)CC(=O)/C=C/c2ccc(O)c(OC)c2)ccc1O [curcumin, Curcumin] |  |  | released over an extended period of time; also recorded: controlled release manner
